Laboratory results taken from ChEMBL document CHEMBL1909046, “DrugMatrix in vitro pharmacology data”.
pIC50, pKi: −log10 of the molar value.

Columns and labels:
Substance-K receptor = molecular target: T1, Substance-K receptor (Homo sapiens, UniProt P21452); type: cell membranes, CHO, Membrane; details: for IC50: cho; on all read-outs here: in other assays of this panel Not Active means under 50% inhibition at 10 µM
T1 sequence (P21452 whole entry): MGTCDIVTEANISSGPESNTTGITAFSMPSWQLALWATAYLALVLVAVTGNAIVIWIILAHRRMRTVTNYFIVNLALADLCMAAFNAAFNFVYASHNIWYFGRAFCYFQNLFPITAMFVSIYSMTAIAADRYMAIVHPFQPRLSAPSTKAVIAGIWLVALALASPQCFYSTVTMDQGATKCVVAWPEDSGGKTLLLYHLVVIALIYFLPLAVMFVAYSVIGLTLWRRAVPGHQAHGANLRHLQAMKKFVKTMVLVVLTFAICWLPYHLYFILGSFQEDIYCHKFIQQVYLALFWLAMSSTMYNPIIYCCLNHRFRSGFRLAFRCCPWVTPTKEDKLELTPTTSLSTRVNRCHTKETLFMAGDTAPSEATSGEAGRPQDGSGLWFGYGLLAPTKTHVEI

[1] = DRUGMATRIX: Platelet-Derived Growth Factor (PDGF) radioligand binding (ligand: [125I] PDGF); type: cell-based; details: nih3t3; Not Active = under 50% inhibition at 10 µM
[2] = molecular target: T2, Vasoactive intestinal polypeptide receptor 1 (Homo sapiens, UniProt P32241); type: cell membranes, Membrane; details: ht-29; further: in other assays of this panel Not Active means under 50% inhibition at 10 µM
T2 sequence (P32241 whole entry): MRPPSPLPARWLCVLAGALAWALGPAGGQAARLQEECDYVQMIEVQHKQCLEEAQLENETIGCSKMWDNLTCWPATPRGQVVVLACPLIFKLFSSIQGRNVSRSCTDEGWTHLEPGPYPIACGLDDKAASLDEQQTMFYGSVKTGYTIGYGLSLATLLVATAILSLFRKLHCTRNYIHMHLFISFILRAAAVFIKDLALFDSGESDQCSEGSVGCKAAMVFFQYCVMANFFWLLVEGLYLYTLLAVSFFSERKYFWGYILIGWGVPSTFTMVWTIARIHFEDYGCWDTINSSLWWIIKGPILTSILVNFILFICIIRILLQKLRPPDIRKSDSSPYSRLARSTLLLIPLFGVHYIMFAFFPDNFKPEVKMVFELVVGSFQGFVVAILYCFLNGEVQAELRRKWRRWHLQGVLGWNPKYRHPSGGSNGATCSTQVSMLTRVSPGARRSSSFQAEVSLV

Adenosine receptor A3 = molecular target: T3, Adenosine receptor A3 (Homo sapiens, UniProt P0DMS8); type: cell membranes, CHO-K1, Membrane; details: for IC50: cho-k1;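 on all read-outs here: radioligand binding assay with AB-MECA serving as the labeled ligand; in other assays of this panel Not Active means under 50% inhibition at 10 µM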
T3 sequence (P0DMS8 whole entry): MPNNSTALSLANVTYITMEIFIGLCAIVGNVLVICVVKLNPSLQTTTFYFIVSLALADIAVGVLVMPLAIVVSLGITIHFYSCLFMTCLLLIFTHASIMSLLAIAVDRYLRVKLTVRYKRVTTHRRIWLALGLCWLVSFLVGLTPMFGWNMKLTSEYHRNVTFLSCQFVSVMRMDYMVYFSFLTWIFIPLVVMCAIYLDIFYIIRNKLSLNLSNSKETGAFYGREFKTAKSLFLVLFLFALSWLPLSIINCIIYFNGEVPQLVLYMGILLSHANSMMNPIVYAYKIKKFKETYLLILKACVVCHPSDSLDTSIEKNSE

[3] = molecular target: T4, C-X-C chemokine receptor type 2 (Homo sapiens, UniProt P25025); type: cell membranes, Membrane; details: cho-k1; further: in other assays of this panel Not Active means under 50% inhibition at 10 µM
T4 sequence (P25025 whole entry): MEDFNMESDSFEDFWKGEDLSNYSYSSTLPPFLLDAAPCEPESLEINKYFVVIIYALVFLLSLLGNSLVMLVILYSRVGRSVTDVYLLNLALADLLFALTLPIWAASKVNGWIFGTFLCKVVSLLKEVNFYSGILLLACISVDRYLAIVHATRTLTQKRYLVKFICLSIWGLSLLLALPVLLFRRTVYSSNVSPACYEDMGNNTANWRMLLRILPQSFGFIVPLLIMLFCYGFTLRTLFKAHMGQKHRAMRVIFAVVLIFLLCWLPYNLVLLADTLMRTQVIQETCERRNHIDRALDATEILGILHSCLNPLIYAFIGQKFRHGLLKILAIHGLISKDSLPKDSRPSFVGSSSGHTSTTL

[4] = molecular target: T5, Neuropeptide Y receptor type 1 (Homo sapiens, UniProt P25929); type: cell membranes, Membrane; details: sk-n-mc; further: in other assays of this panel Not Active means under 50% inhibition at 10 µM
T5 sequence (P25929 whole entry): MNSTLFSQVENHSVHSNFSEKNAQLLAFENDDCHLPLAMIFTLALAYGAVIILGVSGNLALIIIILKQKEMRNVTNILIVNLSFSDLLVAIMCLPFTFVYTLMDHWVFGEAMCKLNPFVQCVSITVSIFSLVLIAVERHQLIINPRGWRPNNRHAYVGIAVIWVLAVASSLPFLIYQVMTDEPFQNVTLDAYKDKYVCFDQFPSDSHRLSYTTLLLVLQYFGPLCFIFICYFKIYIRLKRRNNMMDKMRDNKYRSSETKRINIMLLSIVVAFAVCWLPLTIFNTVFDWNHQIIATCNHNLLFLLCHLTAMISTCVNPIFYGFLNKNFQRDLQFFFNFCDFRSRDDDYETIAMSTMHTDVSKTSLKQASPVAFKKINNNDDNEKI

[5] = DRUGMATRIX: Calcium Channel Type L, Phenylalkylamine radioligand binding (ligand: [3H] (-)-Desmethoxyverapamil (D-888)); type: cell membranes, Rattus norvegicus, Wistar, Brain, Membrane; details: Not Active = under 50% inhibition at 10 µM
[6] = molecular target: T6, 5-hydroxytryptamine receptor 1A (Rattus norvegicus, UniProt P19327); type: cell membranes, CHO-K1, Membrane; details: cho-k1; further: in other assays of this panel Not Active means under 50% inhibition at 10 µM
T6 sequence (P19327 whole entry): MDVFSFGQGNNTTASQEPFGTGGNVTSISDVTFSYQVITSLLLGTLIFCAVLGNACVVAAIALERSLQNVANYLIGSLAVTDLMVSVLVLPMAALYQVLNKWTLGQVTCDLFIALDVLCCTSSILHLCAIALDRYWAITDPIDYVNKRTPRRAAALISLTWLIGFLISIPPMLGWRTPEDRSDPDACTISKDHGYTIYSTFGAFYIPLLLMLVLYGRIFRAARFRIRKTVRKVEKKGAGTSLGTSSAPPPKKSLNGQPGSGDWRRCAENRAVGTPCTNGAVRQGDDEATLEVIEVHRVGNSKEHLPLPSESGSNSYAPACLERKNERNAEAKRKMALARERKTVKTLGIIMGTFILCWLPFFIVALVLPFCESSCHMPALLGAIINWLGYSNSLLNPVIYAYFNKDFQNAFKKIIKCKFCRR

[7] = DRUGMATRIX: Serotonin (5-Hydroxytryptamine) 5-HT3 radioligand binding (ligand: [3H] GR-65630); type: cell membranes, Membrane; details: hek293, Not Active = under 50% inhibition at 10 µM
[8] = DRUGMATRIX: Phosphodiesterase PDE4 enzyme inhibition (substrate: [3H]cAMP + cAMP); details: u-937; Not Active = under 50% inhibition at 10 µM

COC(=O)[C@H](c1ccccc1Cl)N1CCc2sccc2C1 [CLOPIDOGREL]
Not Active: IC50 (Substance-K receptor) | IC50 [1] | Ki [1] | IC50 [2] | IC50 (Adenosine receptor A3) | IC50 [3] | IC50 [4] | IC50 [5] | Ki [5] | IC50 [6] | IC50 [7] | Ki [7] | IC50 [8] | Ki [8]

CN(C)CCCC1(c2ccc(F)cc2)OCc2cc(C#N)ccc21 (configuration not stated) [CITALOPRAM]
5.99: pIC50 ([5]; read-out: IC50)
6.00: pKi ([5]; read-out: Ki)
Not Active: IC50 (Substance-K receptor) | IC50 [1] | Ki [1] | IC50 [2] | IC50 (Adenosine receptor A3) | IC50 [3] | IC50 [4] | IC50 [6] | IC50 [7] | Ki [7] | IC50 [8] | Ki [8]

COc1ccc2c(c1)c(CC(=O)OCC(=O)O)c(C)n2C(=O)c1ccc(Cl)cc1 [ACEMETACIN]
Not Active: IC50 (Substance-K receptor) | IC50 [1] | Ki [1] | IC50 [2] | IC50 (Adenosine receptor A3) | IC50 [3] | IC50 [4] | IC50 [5] | Ki [5] | IC50 [6] | IC50 [7] | Ki [7] | IC50 [8] | Ki [8]

CC(C)(S)[C@@H](N)C(=O)O [PENICILLAMINE]
Not Active: IC50 (Substance-K receptor) | IC50 [1] | Ki [1] | IC50 [2] | IC50 (Adenosine receptor A3) | IC50 [3] | IC50 [4] | IC50 [5] | Ki [5] | IC50 [6] | IC50 [7] | Ki [7] | IC50 [8] | Ki [8]

CC1COc2c(N3CCN(C)CC3)c(F)cc3c(=O)c(C(=O)O)cn1c23 (configuration not stated) [OFLOXACIN]
Not Active: IC50 (Substance-K receptor) | IC50 [1] | Ki [1] | IC50 [2] | IC50 (Adenosine receptor A3) | IC50 [3] | IC50 [4] | IC50 [5] | Ki [5] | IC50 [6] | IC50 [7] | Ki [7] | IC50 [8] | Ki [8]

Cc1[nH]cnc1CN1CCc2c(c3ccccc3n2C)C1=O [ALOSETRON]
Not Active: IC50 (Substance-K receptor) | IC50 [1] | Ki [1] | IC50 [2] | IC50 (Adenosine receptor A3) | IC50 [3] | IC50 [4] | IC50 [5] | Ki [5] | IC50 [6] | IC50 [8] | Ki [8]
9.58: pKi ([7]; read-out: Ki)
8.93: pIC50 ([7]; read-out: IC50)

COc1ccc(CN(CCN(C)C)c2ccccn2)cc1 [PYRILAMINE]
Not Active: IC50 (Substance-K receptor) | IC50 [1] | Ki [1] | IC50 [2] | IC50 (Adenosine receptor A3) | IC50 [3] | IC50 [4] | IC50 [5] | Ki [5] | IC50 [6] | IC50 [7] | Ki [7] | IC50 [8] | Ki [8]

NS(=O)(=O)c1cc2c(cc1Cl)NCNS2(=O)=O [HYDROCHLOROTHIAZIDE]
Not Active: IC50 (Substance-K receptor) | IC50 [1] | Ki [1] | IC50 [2] | IC50 (Adenosine receptor A3) | IC50 [3] | IC50 [4] | IC50 [5] | Ki [5] | IC50 [6] | IC50 [7] | Ki [7] | IC50 [8] | Ki [8]

CCCCCCCCCc1ccc(O)cc1 [4-NONYLPHENOL]
5.72: pIC50 (Adenosine receptor A3; read-out: IC50)
Not Active: IC50 [1] | Ki [1] | IC50 [2] | IC50 [3] | IC50 [4] | IC50 [5] | Ki [5] | IC50 [6] | IC50 [7] | Ki [7] | IC50 [8] | Ki [8]
5.35: pIC50 (Substance-K receptor; read-out: IC50)
5.82: pKi (Substance-K receptor; read-out: Ki)
5.97: pKi (Adenosine receptor A3; read-out: Ki)

CN1C(C(=O)Nc2ccccn2)=C(O)c2ccccc2S1(=O)=O [PIROXICAM]
Not Active: IC50 (Substance-K receptor) | IC50 [1] | Ki [1] | IC50 [2] | IC50 (Adenosine receptor A3) | IC50 [3] | IC50 [4] | IC50 [5] | Ki [5] | IC50 [6] | IC50 [7] | Ki [7] | IC50 [8] | Ki [8]
